According to patent US4517005A, “Aminophenol urease inhibitors and urease inhibited urea based fertilizer compositions” (Allied Corporation, priority 1983, dated 1985):
Where a name gives a salt, the structure may show the parent alone.

How the values were obtained:
[1] = system: urease in New York soil (Cazenovia silt loam, pH 7.0); assay: Urease Inhibition Efficacy Test in New York soil (Cazenovia silt loam); type: biochemical; settings: 40 micrograms test compound per gram soil; 42.8 mg urea per 20 g air-dry soil; incubated at 25° C. for three days; remaining urea; run in triplicate
Description: (§1) Efficacy tests were conducted to evaluate the efficacy of certain representative aminophenol compounds as urease inhibitors. The inhibition tests were run in New York soil (Cazenovia silt loam, pH 7.0) or in Wisconsin soil (Plano silt loam, pH 5.4)
(§2) Evaluations (run in triplicate) consisted of applying 800 micrograms of the test compound in 5 ml of water and 42.8 mg of urea in 1 mL of water to 20 g of air-dry soil in a glass bottle. The bottle was capped with perforated aluminum foil and incubated at 25° C.C for three days prior to extraction with 100 mL of a 2M KCl solution containing 0.5 mg of phenylmercuric acetate. The extracts were then analyzed for remaining urea using an autoanalyzer. Percent inhibition was calculated as % Inhibition=[1-(A-B/A-C)]×100 where A is urea recovered from unincubated sample (urea added to soil and immediately extracted); B is urea recovered from inhibited sample; and C is urea recovered from the control (uninhibited sample).

[2] = system: urease in Wisconsin soil (Plano silt loam, pH 5.4); assay: Urease Inhibition Efficacy Test in Wisconsin soil (Plano silt loam); type: biochemical; settings: 40 micrograms test compound per gram soil; 42.8 mg urea per 20 g air-dry soil; incubated at 25° C. for three days; remaining urea; run in triplicate
Description: as §1, §2

| Compound | % Inhibition 40 micrograms per gram soil Cazenovia pH 7.0 [1] [%] | % Inhibition 40 micrograms per gram soil Wisconsin pH 5.4 [2] [%] |
| --- | --- | --- |
| 2,6-Dichloroiminophenol, sodium salt | 69 | – |
| Nc1ccccc1O [2-aminophenol] | 8 | – |
| O=C(Nc1ccc(O)cc1)c1ccccc1 [4'-Hydroxybenzanilide] | 50 | 14 |
| CN(C)c1ccc(O)cc1 [4-(N,N--dimethylamino)-phenol hydrochloride] | 77 | 49 |
| CNc1ccc(O)cc1 [4-(N--methylamino)phenol sulfate] | 82 | 55 |
| Oc1ccc(Nc2ccccc2)cc1 [4-(N--phenyl)aminophenol] | 69 | 53 |
| Nc1ccc(O)cc1 [4-aminophenol] | 46 | – |
| O=C(O)CNc1ccc(O)cc1 [N--(4-Hydroxyphenyl)glycine] | 82 | 61 |
